Where “and” joins values, the source holds several entries; their conditions need not be identical. Identical values can stand only once. Like-named read-outs stand apart in the source and are kept apart here.
Columns and labels:
[1] = tested on: spindle assembly checkpoint in HeLa cells (phosphorylated histone H3 on serine 10); experiment: Spindle Assembly Checkpoint Assay; format: cell-based; details: Homo sapiens, nocodazole 0.1 μg/ml, 4 h with compound
Source text: The spindle assembly checkpoint assures the proper segregation of chromosomes during mitosis. Upon entry into mitosis, chromosomes begin to condensate which is accompanied by the phosphorylation of histone H3 on serine 10. Dephosphorylation of histone H3 on serine 10 begins in anaphase and ends at early telophase. Accordingly, phosphorylation of histone H3 on serine 10 can be utilized as a marker of cells in mitosis. Nocodazole is a microtubule destabilizing substance. Thus, nocodazole interferes with microtubule dynamics and mobilises the spindle assembly checkpoint. […] An inhibition of the spindle assembly checkpoint by Mps-1 inhibitors overrides the mitotic blockage in the presence of nocodazole, and the cells complete mitosis prematurely. This alteration is detected by the decrease of cells with phosphorylation of histone H3 on serine 10. This decline is used as a marker to determine the capability of compounds of the present invention to induce a mitotic breakthrough.
Cultivated cells of the human cervical tumour cell line HeLa (ATCC CCL-2) were plated at a density of 2500 cells/well in a 384-well microtiter plate in 20 μl Dulbeco's Medium (w/o phenol red, w/o sodium pyruvate, w […] glucose, w pyridoxine) supplemented with 1% (v/v) glutamine, 1% (v/v) penicillin, 1% (v/v) streptomycin and 10% (v/v) fetal calf serum. After incubation overnight at 37° C., 10 μl/well nocodazole at a final concentration of 0.1 μg/ml were added to cells. After 24 h incubation, cells were arrested at G2/M phase of the cell cycle progression. […] Images were acquired with a Perkin Elmer OPERA™ High-Content Analysis reader. Images were analyzed with image analysis software MetaXpress™ from Molecular devices utilizing the Cell Cycle application module. In this assay both labels HOECHST 33342 and phosphorylated Histone H3 on serine 10 were measured. […] The raw assay data were further analysed by four parameter logistic regression analysis to determine the IC50 value for each tested compound.

[2] = tested on: HeLa human cervical tumour cells; experiment: Proliferation Assay with HeLa cells; format: cell-based; details: 96 h, 4 days, crystal violet
Protocol: After 24 hours, the cells of one plate (zero-point plate) were stained with crystal violet (see below), while the medium of the other plates was replaced by fresh culture medium (200 μl), to which the test substances were added in various concentrations (0 μM, as well as in the range of 0.01-30 μM; the final concentration of the solvent dimethyl sulfoxide was 0.5%). The cells were incubated for 4 days in the presence of test substances. […] After three washing cycles of the fixed cells with water, the plates were dried at room temperature. The cells were stained by adding 100 μl/measuring point of a 0.1% crystal violet solution (pH 3.0). After three washing cycles of the stained cells with water, the plates were dried at room temperature. The dye was dissolved by adding 100 μl/measuring point of a 10% acetic acid solution. […] The change of cell number, in percent, was calculated by normalization of the measured values to the extinction values of the zero-point plate (=0%) and the extinction of the untreated (0 μm) cells (=100%). The IC50 values were determined by means of a 4 parameter fit using the company's own software.

[3] = target: T1, human CYP3A4 (Homo sapiens, UniProt P08684); experiment: Determination of inhibitory potential on human CYP3A4; format: in vitro ADME; details: human liver microsomes, midazolam substrate; read-out: inhibition of liver enzyme CYP3A4
T1 construct: Human liver microsomal preparation (pool of HLM) was applied for the assay; from tissue; host or cells: pooled human liver microsomes
T1 sequence (P08684 whole entry): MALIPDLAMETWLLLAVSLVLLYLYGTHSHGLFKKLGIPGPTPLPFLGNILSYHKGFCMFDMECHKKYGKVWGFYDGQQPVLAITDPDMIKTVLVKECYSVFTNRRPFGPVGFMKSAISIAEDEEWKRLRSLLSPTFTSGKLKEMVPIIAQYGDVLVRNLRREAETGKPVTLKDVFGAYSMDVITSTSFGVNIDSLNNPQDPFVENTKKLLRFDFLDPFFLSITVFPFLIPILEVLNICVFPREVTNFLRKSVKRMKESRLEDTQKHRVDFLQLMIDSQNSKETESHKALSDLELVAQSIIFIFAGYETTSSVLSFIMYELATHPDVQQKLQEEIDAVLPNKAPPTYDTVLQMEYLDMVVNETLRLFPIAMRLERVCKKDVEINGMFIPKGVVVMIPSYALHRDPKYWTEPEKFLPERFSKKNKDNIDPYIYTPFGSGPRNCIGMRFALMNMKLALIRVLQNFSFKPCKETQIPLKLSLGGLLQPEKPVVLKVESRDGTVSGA
Protocol: Determination of Inhibitory Potential on Human CYP3A4
The potential of the test compound to act as a competitive inhibitor of CYP3A4 was evaluated in in vitro assays, using human liver microsomes and the reference substrate midazolam. The test compound was solved in acetonitrile. Human liver microsomal preparation (pool of HLM) was applied for the assay.
A stock solution of the test compound was added to phosphate buffer containing EDTA, NADP, glucose 6-phosphate, and glucose 6-phosphate dehydrogenase. This mixture was sequentially diluted on a Genesis Workstation (Tecan, Crailsheim, FRG). After pre-warming, reaction was initiated by addition of a mixture of probe substrate (midazolam). […] The reference samples (substrate, but no inhibitor) were incubated in parallel in sextuple and contained the same amount of solvent as the test incubations. Reactions were stopped by addition of 100 μL acetonitrile containing the internal standard. Precipitated proteins were removed by centrifugation of the well plate, supernatants were analyzed by LC-MS/MS.
The CYP3A4-mediated metabolic activity in the presence of the test compounds was expressed as percentages of the corresponding reference value. […]

[4] = tested on: A2780cis human ovarian cancer xenograft model; details: for T/C weight: mean final tumor weight; for T/C area: relative tumor area at control dosing stop (15 treatment days)
Protocol: In Vivo Anti-Tumor Efficacy of Mps-1 Kinase Inhibitors of the Present Invention in Combination with Paclitaxel in A2780cis Human Ovarian Cancer Model in Nude Mice
The effect of combination treatment of an Mps-1 kinase inhibitor of the present invention and paclitaxel was studied in the adaptive cisplatin-resistant and paclitaxel intrinsically resistant A2780cis xenograft model. […] Animal body weight and tumor size were determined three times weekly. Treatment for all groups started at a tumor size of 29 mm^2, at day 6 after tumor cell inoculation. […] At the end of the study after one final treatment plasma and tumors were sampled for PK analysis and final tumor weight was determined.

[5] = tested on: NCI-H1299 human NSCLC xenograft model; details: for T/C weight: mean final tumor weight; for T/C area: relative tumor area at control dosing stop (22 treatment days)
Source text: In Vivo Anti-Tumor Efficacy of Mps-1 Kinase Inhibitors of the Present Invention in Combination with Paclitaxel in NCI-H1299 Human NSCLC Model in Nude Mice
The effect of combination treatment of an Mps-1 kinase inhibitor of the present invention and paclitaxel was studied in the NCI-H1299 taxane intrinsically resistant human lung carcinoma (NSCLC) xenograft model in nude mice. […] Substances were formulated in optimal vehicles to achieve solutions. Animal body weight and tumor size were determined three times weekly. Treatment for all groups started at a tumor size of 30 mm^2, at day 8 after tumor cell inoculation. […] At the end of the study after one final treatment plasma and tumors were sampled for PK analysis and final tumor weight was determined.

[6] = Compound A27 2 mg/kg 2QD 2on/5off p.o.
[7] = Compound A27 3 mg/kg 2QD 2on/5off p.o.

Structure (SMILES) | IC50 [1] [nM] | IC50 [2] [nM] | IC50 [3] [nM] | Fatal Tox [4, 6] | T/C weight [4, 6] | T/C area [4, 6] | Fatal Tox [4, 7] | T/C weight [4, 7] | T/C area [4, 7] | Fatal Tox [5, 6] | T/C weight [5, 6] | T/C area [5, 6] | Fatal Tox [5, 7] | T/C weight [5, 7] | T/C area [5, 7]
COc1ccc(Oc2cc(NCC3COC3)c3ncc(-c4ccc(C(=O)NC5CC5)c(C)c4)n3n2)cc1F [Compound A26, N-cyclopropyl-4-{6-(3-fluoro-4-methoxyphenoxy)-8-[(oxetan-3-ylmethyl)amino]imidazo[1,2-b]pyridazin-3-yl}-2-methylbenzamide] | < 1 | < 25 | ≥ 5000 | – | – | – | – | – | – | – | – | – | – | – | –
COc1ccc(Oc2cc(NCCC(F)(F)F)c3ncc(-c4ccc(C(=O)NC5CC5)c(C)c4)n3n2)c(F)c1F [Compound A27, N-cyclopropyl-4-{6-(2,3-difluoro-4-methoxyphenoxy)-8-[(3,3,3-trifluoropropyl)amino]imidazo[1,2-b]pyridazin-3-yl}-2-methylbenzamide] | < 1 | – | – | 0/10 | 0.98 | 1.00 | 0/10 | 0.88 | 0.90 | 0/10 | 1.18 | 0.99 and 0.98 | 0/10 | 0.74 | 0.64
COc1ccc(Oc2cc(NCC3CCOCC3)c3ncc(-c4ccc(C(=O)NC5CC5)c(C)c4)n3n2)c(F)c1F [Compound A28, N-cyclopropyl-4-{6-(2,3-difluoro-4-methoxyphenoxy)-8-[(tetrahydro-2H-pyran-4-ylmethyl)amino]imidazo[1,2-b]pyridazin-3-yl}-2-methylbenzamide] | < 1 | < 25 | ≥ 5000 | – | – | – | – | – | – | – | – | – | – | – | –

Source: patent US20160175306A1, “COMBINATION OF A IMIDAZOPYRIDAZINE DERIVATIVE AND A MITOTIC AGENT FOR THE TREATMENT OF CANCER” (BAYER PHARMA AKTIENGESELLSCHAFT, priority 2013, published 2016)
